In US20020169123A1, “Regulating apoptosis in TRAIL-resistant cancer cells, while protecting normal, non-cancerous cells” (THE TRUSTEES OF THE UNIVERSITY OF PENNSYLVANIA, priority 2001, published 2002):

Key:
[1] = test system: TRAIL-resistant HCE4, TE3, and TE5 cells; assay: active-caspase 3 assay, adriamycin plus TRAIL; type: cell-based, human; details: z-LEHD-FMK 20 μM added 2 hours before TRAIL
Protocol: Cells were treated with TRAIL (50 ng/mL final concentration) and 1 μg/mL of anti-6× His (N-terrninal histidine antibody) for 4 hours or for 16 hours. The caspase inhibitor was used at a final concentration of 20 μM, and was added 2 hours prior to the addition of TRAIL. When the cells were treated with both cycloheximide (CHX) and TRAIL, CHX (10 μg/mL final concentration) was added 6 hours before the addition of TRAIL. In the case of adriamycin, cells were pre-treated with adriamycin (0.5 μM final concentration) for 16 hours before the addition of TRAIL.
(§3) For detecting apoptosis mediated by TRAIL, an active-caspase 3 assay was performed using Cytofix/Cytoperm kit (Pharmingen, San Diego, Calif.), as previously described (Kim et al., Int. J. Oncol. 18:241-247 (2001)). Briefly, using standard techniques, 5×10^5 cells were seeded into a 6 well plate, after which, the cells were treated with TRAIL cross-linked with anti-6× His antibody. […] After washing, the cells were probed with 0.125 μg/μl of Phycoerythrin (PE)-conjugated goat anti-rabbit secondary antibody (Ab) (CALTAG Laboratories, Burlingame, Calif.) for 20 minutes in the dark. The intensity of PE was analyzed by flow cytometry using a Beckman-Coulter Epics Elite analyzer.
Accordingly, adriamycin was tested to determine whether its combination with TRAIL could induce synergistic cell killing in TRAIL-resistant esophageal cancer cells. TRAIL-resistant HCE4, TE3, and TE5 cells were pre-treated with 0.5 μM adriamycin for 16 hours, followed by incubation for 4 hours in the presence of TRAIL. z-LEHD-FMK (20 μM final concentration) was added 2 hours before the addition of TRAIL. An active-caspase 3 assay was used to determine whether apoptosis occurred.
Next, z-LEHD-FMK was tested in the HCE4, TE3 and TE5 cells to determine the protective effect of z-LEHD-FMK, if any, on the synergistic cell death driven by the combination of adriamycin with TRAIL.

[2] = test system: EPC2-GFP and TRAIL-sensitive TE2 mixed culture; assay: active-caspase 3 assay in mixed culture; type: cell-based, human; details: TRAIL 4 hours with z-LEHD-FMK
Protocol: Finally, to confirm the observation that there was preferential protection of z-LEHD-FMK on normal esophageal epithelial cells in TRAIL-mediated apoptosis, but no similar protection afforded to TRAIL-sensitive esophageal cancer cells, both EPC2-GFP (2×10^5 cells) and TRAIL-sensitive TE2 (5×10^5 cells) were grown as a mixed culture in a 6-well plate. The cells were treated with TRAIL for 4 hours in the presence, or absence, of z-LEHD-FMK. An active-caspase 3 assay was performed, and the two populations within the mixed-cells were distinguished by the presence (EPC2-GFP), or absence (TE2), of GFP. […] Experiments were done in duplicate (mean value±SD).

[3] = test system: normal esophageal epithelial EPC2 cells; assay: effect of Ad-ILZ-TR derived TRAIL; type: cell-based; details: EPC2 cells in the presence of z-LEHD-FMK
From the text: (§1) To make an adenovirus expressing extra-cellular portion of TRAIL (amino acids (Aa) 95 to 281), pAdTRACK/CMV and pAdEasy systems were used as previously described (He et al., Proc. Natl. Acad. Sci. USA 95:2509-2514 (1998)). In short, the extra-cellular portion of TRAIL was amplified by PCR (polymerase chain reaction). The amplified fragment was fused directly to the signal peptide of a mouse Ig κ chain, which is secreted into the media from the cells. Then, an isoleucine zipper (ILZ) fragment was inserted between the signal peptide and TRAIL to induce self-trimerization (Harbury et al., Science 262:1401-1407 (1993)). The final resulting construct was cloned into pAdTRACK/CMV, and then a recombinant plasmid was generated in BJ5183 E. coli by co-transforming PmeI-digested TRAIL-cloned pAdTRACK/CMV and pAdEASY.
(§2) The recombinant plasmid was digested with PacI, and was used for transfection into […] 293 cells using Superfect (QIAGEN, Valencia, Calif.). Approximately five (5) days after transfection, when comet-like patches of the green cells appeared, the cells were harvested. The viruses were amplified and purified as previously described (El-Deiry et al., Cell 75:817-825 (1993)). The infectivity of the viruses was checked by the observation of green fluorescence using a fluorescence microscope. […]

[4] = test system: EPC2 normal esophageal epithelial cells
Protocol: Normal human primary epithelial cells (EPC2, provided by Dr. Anil Rustgi, University of Pennsylvania) and primary human foreskin keratinocytes (HFK, provided by Dr. John C. Ansel, Emory University), were grown in Keratinocyte-SFM medium (Gibco BRL, Rockville, Md.) containing bovine pituitary extract (40 μg/mL) and epidermal growth factor (1 ng/mL). The primary epithelial cells were used at passage 4 or 5.
The N-terminal histidine (His) tagged recombinant human TRAIL (rhTRAIL, Thr-95 to Gly-281) was obtained from R&D Systems (Minneapolis, Minn.). A mouse monoclonal anti-6× His antibody (R&D Systems) was used for cross-linking the rhTRAIL. […] Cells were treated with TRAIL (50 ng/mL final concentration) and 1 μg/mL of anti-6× His (N-terrninal histidine antibody) for 4 hours or for 16 hours. The caspase inhibitor was used at a final concentration of 20 μM, and was added 2 hours prior to the addition of TRAIL. […] In the case of adriamycin, cells were pre-treated with adriamycin (0.5 μM final concentration) for 16 hours before the addition of TRAIL.
as §3

normal human hepatocytes = details: Ozoren et al., 2000; cited from earlier work
[5] = test system: TRAIL-sensitive esophageal cancer cells; assay: active-caspase 3 assay, effect of z-LEHD-FMK on TRAIL-sensitive cancer cells; type: cell-based, human; details: extent of apoptosis slightly reduced
Protocol: Next, to determine the effect of z-LEHD-FMK on TRAIL-sensitive esophageal cancer cells (i.e., could z-LEHD-FMK also protect TRAIL-sensitive esophageal cancer cells from apoptosis), an active-caspase 3 assay was performed, as described above in the assay shown in FIG. 4A.

[6] = test system: all cells, including cancer cells; assay: protection from the killing effect of TRAIL by caspase inhibitors; type: cell-based; details: stated without experimental detail
[7] = test system: TRAIL-sensitive SW480 colon cancer cells; assay: apoptosis-inducing activity of adenovirus-expressed TRAIL; type: cell-based, human; details: z-VAD-FMK 20 μM added 1 hour after onset of virus infection
From the text: as §1, §2

z-LEHD-FMK (HELM PEPTIDE1{[O=C(OCc1ccccc1)[*:2]].L.E.H.D.[FC[*:1]]}$$$$V2.0; SMILES CC(C)C[C@H](NC(=O)OCc1ccccc1)C(=O)N[C@@H](CCC(=O)O)C(=O)N[C@@H](Cc1c[nH]cn1)C(=O)N[C@@H](CC(=O)O)C(=O)CF)
effect of z-LEHD-FMK on cell death by adriamycin plus TRAIL ([1]; HCE4 cells): still killed in a synergistic way
effect of z-LEHD-FMK on cell death by adriamycin plus TRAIL ([1]; TE3 and TE5 cells): almost completely blocked cell death
TRAIL-mediated apoptosis in presence of z-LEHD-FMK, TE2 population ([2]; mixed culture with EPC2-GFP): continued to undergo apoptosis
protection from TRAIL-mediated apoptosis, EPC2-GFP population ([2]; mixed culture with TE2): almost completely protected
protection from cell death by Ad-ILZ-TR derived TRAIL [3]: completely protected from cell death
protection from cell killing by TRAIL plus adriamycin ([4]; EPC2 cells in the presence of z-LEHD-FMK): almost completely protected from cell killing
protection from TRAIL-mediated apoptosis ([4]; EPC2 cells, TRAIL 50 ng/mL 4 hours, z-LEHD-FMK 20 μM added 2 hours before TRAIL): completely protected
rescue from TRAIL-mediated apoptosis (normal human hepatocytes): could rescue normal human hepatocytes
effect of z-LEHD-FMK on TRAIL-mediated apoptosis [5]: still underwent apoptosis

z-VAD-FMK
protection from the killing effect of TRAIL [6]: protect all cells, including cancer cells, from the killing effect of TRAIL
cleavage of caspase 3 and PARP in Ad-ILZ-TR infected cells with inhibitor [7]: no cleavage was observed
